Here are results for 12 compounds from patent publication US8653072B2, “Estrogen receptor ligands” (Karo Bio AB, priority 2008, dated 2014).

Assay [1] deals with T1, human estrogen receptor beta (hERβ 530) (Homo sapiens, UniProt Q92731).
T1 construct: expressed in transfected cells
The experiment in a line: Transactivation assay 2: HEK293 cells stably transfected with pERE2-ALP and human estrogen receptor beta. Conditions: read-out: potency at the estrogen receptor β-subtype, EC50. The class given is cell-based. The method, then: Transactivation Assay 2: Transactivation Assay in Human Embryonic Kidney 293 Cells Stably Transfected with pERE2-ALP and Human Estrogen Receptor Beta
Generation of stable HEK293 cell lines (CRL-1573; American Type Culture Collection) expressing the reporter vector pERE2-ALP and human estrogen receptor beta (hERβ 530) have been described (Mol Pharmacol 1998, 54, 105-112; Endocrinology 2002, 143, 1558-1561),
The cells were seeded in 384-well plates at 12 500 cells per well in Ham's F12 Coon's modification (without phenol red) with 10% dextran-coated charcoal treated (DCC) fetal bovine serum (FBS), 2 mM L-glutamine and 50 μg/ml gentamicin. After 24 h incubation (37° C., 5% CO2) the seeding medium was discarded and replaced with 20 μl Ham's F12 Coon's modification (without phenol red) with 1.5 DCC-FCS, 2 mM L-glutamine and supplemented with 100 U/ml penicillin and 100 μg/ml streptomycin. The selected compounds were added to the wells in 12 concentrations ranging from […] to 33 μM. The compounds were dissolved in 100% dimethylsulfoxide (DMSO) and the final concentration of DMSO in the assay was 0.1%. After 72 h incubation (37° C., 5% CO2) the medium was assayed for ALP activity by a chemiluminescence assay; a 10 μl aliquot of the conditioned medium was mixed with 100 μl assay buffer (0.1 M diethanolamine, 1 mM MgCl2) and 0.5 mM disodium 3-(4-methoxyspiro 1,2-dioxetane-3,2′-(5′-chloro)-tricyclo[3.3.1.13,7]decan-4-yl)phenyl phosphate (CSPD) (Tropix, Applied Biosystems) and incubated for 20 min at 37° C. and 15 min at room temperature before measurement of the chemiluminescent signal (one second per well) in a Wallac Microbeta Trilux 1450-028 (PerkinElmer). The ALP activity expressed in LCPS is directly proportional to the level of ALP expressed by the cells. The half maximal effective concentrations of the test compounds (EC50) were calculated from the curves fitted to the concentration-response data with a four parameter logistic model in XLfit software version 2.0 (IDBS) or later.

A further assay addresses T2, human ERβ (ERβ-LBD) (Homo sapiens, UniProt Q92731).
T2 construct: ERβ (ERβ-LBD, pET-N-AT #1, aa 255-530); made in house; host or cells: E. coli BL21 (DE3) pBirA
The assay can be described thus: Binding assay 1: estrogen receptor SPA binding assay (3H-E2 displacement), ERβ. Conditions: read-out: binding affinity to the estrogen receptor β-subtype, IC50. The protocol:
Binding Assay 1: Estrogen Receptor Binding Assay
The estrogen receptor ligand binding assays are designed as scintillation proximity assays (SPA), employing the use of tritiated estradiol (^3H-E2) and recombinant expressed biotinylated estrogen receptor binding domains. The binding domains of human ERα (ERα-LBD, pET-N-AT #1, aa 301-595) and ERβ (ERβ-LBD, pET-N-AT #1, aa 255-530) proteins are produced in E. coli ((BL21, (DE3), pBirA)) at 22 C in 2×LB medium supplemented with 50 uM biotin. After 3 h of IPTG induction (0.55 mM), cells are harvested by centrifugation at 7300×g for 15 min and cell pellets stored frozen in −20 C. Extraction of ERα and ERβ are performed using 5 g of cells suspended in 50 mL of extraction buffer (50 mM Trig, pH 8.0, 100 mM KCl, 4 mM EDTA, 4 mM DDT and 0.1 mM PMSF). The cell suspension is run twice through a Microfluidizer M-110L (Microfluidics) and centrifuged at 15,000×g for 60 min. The supernatant is aliquoted and stored in −70 C.
Dilute ERα-LBD or ERβ-LBD extracts in assay buffer (18 mM K2HPO4, 2 mM KH2PO4, 20 mM NasMoO4, 1 mM EDTA, 1 mM TCEP) 1:676 and 1:517 for alpha and beta respectively. The diluted receptor concentrations should be 900 fmol/L. Preincubate the extracts with streptavidin coated polyvinyltoluene SPA beads (RPNQ0007, GE Healthcare) at a concentration of 0.43 mg/mL for 1 hr at room temperature.
Test compounds are evaluated over a range of concentrations from 157 μM to 37.5 pM. The test compound stock solutions should be made in 100% DMSO at 5× of the final concentration desired for testing in the assay. The amount of DMSO in the test wells of the 384 well plate will be 20%. Add 18 μl aliquots of test compounds to the assay plates followed by 35 μl of the preincubated receptor/SPA bead mix and finally add 35 μl of 3 nM ^3H-E2. Cover the plates with a plastic sealer, centrifuge for 1 minute at 1000 rpm and equilibrate over night on a shaker at room temperature. The following morning, centrifuge the plates 5 minutes at 2000 rpm and measure on a plate scintillation counter e.g. a PerkinElmer Microbeta 1450 Trilux.
For compounds able to displace 3[H]-E2 from the receptor an IC50-value (the concentration required to inhibit 50% of the binding of 3[H]-E2) is determined by a non-linear four parameter logistic model; b=((bmax−bmin)/(1+(I/IC50)S))+bmin I is added concentration of binding inhibitor, IC50 is the concentration of inhibitor at half maximal binding and S is a slope factor. The Microbeta-instrument generates the mean cpm (counts per minute) value/minute and corrects for individual variations between the detectors thus generating corrected cpm values.

Molecules are shown by their SMILES. pEC50, pIC50: −log10 of the molar value.

T1 sequence (Q92731 whole entry): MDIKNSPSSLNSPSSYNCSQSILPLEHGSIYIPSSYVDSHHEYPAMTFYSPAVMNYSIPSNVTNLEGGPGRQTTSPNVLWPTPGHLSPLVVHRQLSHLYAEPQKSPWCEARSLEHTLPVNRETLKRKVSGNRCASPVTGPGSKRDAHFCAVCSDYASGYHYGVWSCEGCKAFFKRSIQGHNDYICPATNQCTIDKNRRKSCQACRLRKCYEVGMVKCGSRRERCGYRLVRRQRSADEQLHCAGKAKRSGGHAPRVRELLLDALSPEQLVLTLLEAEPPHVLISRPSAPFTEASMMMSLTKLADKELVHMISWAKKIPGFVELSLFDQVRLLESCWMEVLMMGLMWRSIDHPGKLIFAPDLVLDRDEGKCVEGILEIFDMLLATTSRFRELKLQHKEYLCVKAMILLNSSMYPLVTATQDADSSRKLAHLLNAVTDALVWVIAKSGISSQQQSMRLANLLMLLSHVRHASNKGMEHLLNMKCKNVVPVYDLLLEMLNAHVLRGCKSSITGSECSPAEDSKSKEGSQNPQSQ
T2 sequence (Q92731 255-530): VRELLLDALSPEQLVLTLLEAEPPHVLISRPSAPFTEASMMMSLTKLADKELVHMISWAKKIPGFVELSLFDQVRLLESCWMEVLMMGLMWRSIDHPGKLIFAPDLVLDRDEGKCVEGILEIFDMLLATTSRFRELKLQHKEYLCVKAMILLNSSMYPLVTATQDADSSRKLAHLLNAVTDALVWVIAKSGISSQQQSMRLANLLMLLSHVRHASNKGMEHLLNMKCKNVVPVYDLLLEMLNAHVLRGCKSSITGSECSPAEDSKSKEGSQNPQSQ

With `Cc1noc(C)c1-c1c(/C(N)=N/O)c2ccccc2n1-c1ccc(O)cc1` [Example 11, (Z)-2-(3,5-dimethylisoxazol-4-yl)-N′-hydroxy-1-(4-hydroxyphenyl)-1H-indole-3-carboximidamide], the pEC50 in assay [1] was 7.30 to 9.00. The pIC50 at human ERβ (ERβ-LBD) was 6.70 to 9.00.
Regarding `Cc1ccc(C)n1-c1c(/C(N)=N/O)c2ccccc2n1-c1ccc(O)cc1` [Example 194, (Z)-2-(2,5-dimethyl-1H-pyrrol-1-yl)-N′-hydroxy-1-(4-hydroxyphenyl)-1H-indole-3-carboximidamide], in assay [1], the negative logarithm of the EC50 (pEC50) was 7.30 to 9.00. On human ERβ (ERβ-LBD), the pIC50 is 6.70 to 9.00.
As to `C/C=C(/C)c1c(/C(N)=N/O)c2ccccc2n1-c1ccc(O)cc1` [Example 191, (Z)-2-((Z)-but-2-en-2-yl)-N′-hydroxy-1-(4-hydroxyphenyl)-1H-indole-3-carboximidamide], the pEC50 in assay [1] was 7.30 to 9.00. Further, the pIC50 on human ERβ (ERβ-LBD) is 6.70 to 9.00.
The corresponding values for `C=C(C)c1c(-c2ccccc2)n(-c2ccc(O)cc2)c2ccccc12` [Example 163, 4-(3-Isopropenyl-2-phenyl-indol-1-yl)-phenol] are 7.30 to 9.00 and 6.70 to 9.00.
Turning to `CC(C)=Cc1c(/C(N)=N/O)c2cc(F)ccc2n1-c1ccc(O)cc1` [Example 223, (Z)-5-fluoro-N′-hydroxy-1-(4-hydroxyphenyl)-2-(2-methylprop-1-enyl)-1H-indole-3-carboximidamide], the pEC50 in assay [1] was 7.30 to 9.00. For the same compound, the negative-log IC50 (pIC50) on human ERβ (ERβ-LBD) was 6.70 to 9.00.
`Cc1noc(C)c1-c1c(-c2ccccc2)c2ccccc2n1-c1ccc(O)cc1` [Example 42, 4-(2-(3,5-dimethylisoxazol-4-yl)-3-phenyl-1H-indol-1-yl)phenol]: in assay [1], the pEC50 was 7.30 to 9.00. On human ERβ (ERβ-LBD), the pIC50 was 6.70 to 9.00.
In the case of `Cc1noc(C)c1-c1c(C(N)=NO)c2ccccc2n1-c1ccc(O)cc1F` [Example 235, (Z)-2-(3,5-dimethylisoxazol-4-yl)-1-(2-fluoro-4-hydroxyphenyl)-N′-hydroxy-21H-indole-3-carboximidamide], the pEC50 in assay [1] is 7.30 to 9.00. Besides, the negative-log IC50 (pIC50) on human ERβ (ERβ-LBD) was 6.70 to 9.00.
Turning to `CC(C)=Cc1c(C#N)c2cc(F)ccc2n1-c1ccc(O)cc1` [Example 220, 5-Fluoro-1-(4-hydroxy-penyl)-2-(2-methyl-prop-1-enyl)-1H-indole-3-carbonitrile], the pEC50 in assay [1] was 7.30 to 9.00. Moreover, on human ERβ (ERβ-LBD), the pIC50 was 6.70 to 9.00.
For the compound `Cc1cccn1-c1c(/C(N)=N/O)c2ccccc2n1-c1ccc(O)cc1` [Example 188, (Z)-N′-hydroxy-1-(4-hydroxyphenyl)-2-(2-methyl-1H-pyrrol-1-yl)-1H-indole-3-carboximidamide], the pEC50 in assay [1] is 7.30 to 9.00. Further, the pIC50 on human ERβ (ERβ-LBD) is 6.70 to 9.00.
Regarding `Cc1noc(C)c1-c1c(/C(N)=N/O)c2cc(F)ccc2n1-c1ccc(O)cc1` [Example 221, (Z)-2-(3,5-dimethylisoxazol-4-yl)-5-fluoro-N′-hydroxy-1-(4-hydroxyphenyl)-1H-indole-3-carboximidamide], the pEC50 in assay [1] was 7.30 to 9.00. Besides, the pIC50 on human ERβ (ERβ-LBD) was 6.70 to 9.00.
For `CC(C)=Cc1c(C#N)c2ccccc2n1-c1ccc(O)cc1` [Example 39, 2-(Isobut-1-enyl)-1-(4-hydroxyphenyl)-1H-indole-3-carbonitrile], the pEC50 in assay [1] was 7.30 to 9.00. The pIC50 on human ERβ (ERβ-LBD) is 6.70 to 9.00.
The corresponding values for `C/C=C\c1c(C#N)c2ccccc2n1-c1ccc(O)cc1` [Example 68, 1-(4-Hydroxy-phenyl)-2-((Z)-propenyl)-1H-indole-3-carbonitrile] are 7.30 to 9.00 and 6.70 to 9.00.
